Reference: patent publication US20240228925A1, “APPARATUS AND METHOD FOR A […] ALVEOLAR LUNG-ON-A-CHIP MODEL” (priority 2021, published 2024)

System: SARS-COV-2 pseudoviral particle (pCoV-VP)
Type: cell-based

SMILES	decrease of cytopathic effects of pCoV-VPs (MTS assay)
CCN(CC)Cc1cc(Nc2ccnc3cc(Cl)ccc23)ccc1O [amodiaquine]	approximately 21.4%
CCN(CCO)CCCC(C)Nc1ccnc2cc(Cl)ccc12 (stereo not drawn) [hydroxychloroquine]	~11.3%
CCC(CC)COC(=O)[C@H](C)N[P@](=O)(OC[C@H]1O[C@@](C#N)(c2ccc3c(N)ncnn23)[C@H](O)[C@@H]1O)Oc1ccccc1 [remdesivir]	~30.0%
